# Laboratory results as given in paper PMC6268933 (Molecules, 2012).
# Read-outs that look alike come from different tables or passages of the source.
# Experiments:
# [1] = cited from earlier work
# [2] = Cytotoxicity on Vero cells by MTT assay; assay type: cell-based; settings: African green monkey (Cercopitheus aethiops)
# Method: The isolated compounds were tested for in-vitro cytotoxicity using Vero cells by 3-(4,5-dimethylthiazol-2-yl)-2,5-diphenyltetrazolium bromide (MTT) assay. The Vero cell line was initiated from kidney of a normal adult African green monkey, Cercopitheus aethiops, obtained from Virology Laboratory, School of Biosciences and Biotechnology, Faculty of Science and Technology, UKM. Vero cells were maintained in DMEM, supplemented with 10% FBS and cultured at 37 °C in a humidified 5% CO2 incubator. The concentration of stock compound solution was 1.0 mg/mL prepared by dissolving 1 mg compound in 50 μL methanol and 950 μL 5% FBS-DMEM. Sonicator was used to emulsify the compounds for 40 min before the two-fold dilutions made in 5% FBS-DMEM to produce a compound solution at concentrations of 0.5, 0.25, 0125 and 0.0625 mg/mL. Briefly, a total of […] of cell suspension with different concentrations were added to each well in the 96-well micro-titer plates. As a positive control, each well from first to third wells was added with cells of 2.5 × 10^5, 1.25 × 10^5 and 0.625 × 10^5 cells/mL. For the negative control (100% cell death, LC100), […] of DMEM without cells were added to the twelfth well. Cells of 2.5 × 10^5 cells/mL were added into the fourth to eleventh wells. The plates were incubated for 48 h at 37 °C with 5% CO2 until a monolayer is formed. […] After the incubation period, MTT (20 μL, 5 mg/mL) was added into each well and the cells incubated for 2 to 4 h, until a purple precipitate was clearly visible under a microscope, the medium together with MTT (190 μL) was aspirated off from the wells, DMSO (100 μL) was added and the plate shaken for 5 min. The absorbance for each well was measured at 540 nm in a micro-titer plate reader and percentage of cell viability (CV) was calculated manually using the formula: CV = [(Abssample − Absnegative control)/(Abscell − Absnegative control)] × 100.
# [3] = β-carotene-linoleic acid (BCLA) assay; assay type: biochemical; settings: bleaching of β-carotene, 450 nm, up to 120 min; mean ± SD (n = 3); read-out: BCLA method (IC50)
# Method: This test was carried out according to the reported method of literature with modification. Approximately 4 mL of a solution of β-carotene in chloroform (1 mg/mL) were pipetted into a flask containing 40 mg of linoleic acid and 400 mg of Tween-40. The chloroform was removed using a rotary evaporator at 40 °C for 5 min, and to the residue, 100 mL of distilled water were added, slowly with vigorous agitation, to form an emulsion. A 96-well micro-titer plate was added with 50 μL of the Part 2.4.1 solution of the test compound and 200 μL of the emulsion, and the absorbance was measured at 450 nm, immediately, against a blank consisting of the emulsion without β-carotene. The plate was allowed to stand at room temperature (20–23 °C), and the absorbance measurements were conducted again at 30 min intervals up to 120 min. All tests were carried out in triplicate. Stable antioxidants of AscA and BHT were used as positive controls. The antioxidant activity (AA) of the test samples was evaluated in terms of bleaching of β-carotene using the formula; AA = [1 − (A0 − At)/(A0' − At')] × 100, where A0 and A0' are the absorbance values measured at zero time of the sample and the blank, respectively, and At and At' are the absorbance measured in the test sample and the blank, respectively, at times up to 120 min.
# [4] = DPPH radical scavenging activity (RSA) assay; assay type: biochemical; settings: for IC50: 15 min in the dark at room temperature, 515 nm, mean ± SD (n = 3), read-out: DPPH radical scavenging activities (IC50); for average fold higher DPPH scavenging activity compared to compounds 1 to 6: positive controls vs compounds 1 to 6
# Method: The antioxidant activity of all six compounds was determined by the DPPH radical scavenging method according to the previous procedure with modification. Each compound was diluted two-fold in a series of five starting from 5.00 mg/mL. The solution of DPPH in methanol (6 × 10^−5 M) was prepared daily before UV measurements. A 3 mL aliquot of this solution was mixed with 77 μL of the compound solution in a 1-cm path length microcuvette. The mixture was shaken vigorously. The mixtures were then kept in the dark for 15 min at room temperature and the decrease in absorption was measured immediately in a UV-Vis spectrophotometer at 515 nm. The blank solution containing the same amount of methanol and DPPH solution was prepared and its absorption was measured daily. The experiment was carried out in triplicate. AscA and BHT were used as positive controls. The RSA of samples, expressed as percentage inhibition of DPPH, was calculated according to the formula: Inhibition percentage (Ip) = [(AB − AA)/AB] × 100, where AB and AA are the absorbance values—checked after 15 min—of the blank sample and of the tested sample solutions, respectively.
# [5] = from Parthenocissus laetevirens, read-out: DPPH RSA antioxidant activities
# [6] = Vero cells, MTT, 24 h incubation, read-out: Cytotoxic activities on Vero cell lines (LC50)
# [7] = from V. wilsonae, read-out: antioxidant activities towards DPPH, IC50
# [8] = from V. chunganensis, read-out: DPPH RSA
compound,measurement,setting,value
Oc1cc(O)cc(/C=C/c2ccc(O)c(O)c2)c1 [piceatanol],IC50,"[1]; from Cyperus longus, read-out: DPPH RSA IC50",11 µM
laetevirenol C,IC50,[1]; [5],111 µM
"O=C1O[C@@H]2[C@H](O)COC23O[C@@H](c2ccc(O)cc2)[C@H](c2cc(O)cc4c2[C@@H](c2cc(O)cc(O)c2)[C@H](c2ccc(O)cc2)O4)[C@@]13O (stereo partly shown) [Compound 2, laevifonol]",CC50 at 24 h,[2]; [6],597 µM
same,IC50,[3],220 ± 20 µM
same,IC50,[4],4210 ± 230 µM
C[C@@H]1[C@H](O)[C@@H](O)CC(C)(C)[C@@]1(O)/C=C/[C@@H](C)O [wilsonol B],IC50,[1]; [7],195 µM
"Oc1ccc([C@H]2Oc3cc(O)cc4c3[C@@H]2c2cc(O)cc3c2[C@@H](c2cc(O)cc5c2[C@@H]4[C@H](c2ccc(O)cc2)O5)[C@H](c2ccc(O)cc2)O3)cc1 [Compound 3, (+)-α-viniferin]",CC50 at 24 h,[2]; [6],208 µM
same,IC50,[3],180 µM
same,IC50,[4],6290 ± 50 µM
"O=C1O[C@H]([C@@H](O)CO)C(O)=C1O [AscA, ascorbic acid, reference compound]",IC50,[3],25200 ± 1740 µM
same,IC50,[4],680 µM
same,average fold higher DPPH scavenging activity compared to compounds 1 to 6,[4],6 fold
"Oc1ccc([C@H]2c3c(O)cc(O)cc3[C@H]3c4c(cc(O)cc4[C@@H]2[C@H]2c4cc(O)cc5c4[C@H](c4cc(O)cc(O)c4[C@@H]2c2ccc(O)cc2)[C@@H](c2ccc(O)cc2)O5)O[C@@H]3c2ccc(O)cc2)cc1 [Compound 6, (−)-hopeaphenol]",CC50 at 24 h,[2],161 µM
same,IC50,[3],100 ± 10 µM
same,IC50,[4],2780 ± 160 µM
Oc1ccc([C@H]2c3c(O)cc(O)c4c3c(cc3ccc(O)cc34)[C@@H]2c2cc(O)cc(O)c2)cc1 [laetevirenol A],IC50,[1]; [5],38.4 µM
"Cc1cc(C(C)(C)C)c(O)c(C(C)(C)C)c1 [BHT, butylated hydroxytoluene, reference compound]",IC50,[3],90 µM
same,IC50,[4],950 ± 50 µM
same,average fold higher DPPH scavenging activity compared to compounds 1 to 6,[4],4 fold
(+)-amurensin G,IC50,[1]; [8],138 µM
"O=C1C=CC23C(C1)Oc1cc(O)cc4c1C2C(c1cc(O)cc2c1C4C(c1ccc(O)cc1)O2)C(c1cc(O)cc2c1C(c1cc(O)cc(O)c1)C(c1ccc(O)cc1)O2)C3c1ccc(O)cc1 (stereo not shown) [Compound 4, shoreaketone]",CC50 at 24 h,[2]; [6],830 µM
same,IC50,[3],110 µM
same,IC50,[4],1540 ± 100 µM
Oc1ccc(/C=C/c2c3c(cc4c2[C@H](c2cc(O)c(Cc5c(O)cc(O)cc5[C@@H]5c6c(O)cc7c8c6[C@H]([C@@H](c6ccc(O)cc6)c6c(O)cc(O)cc6[C@@H]8[C@@H](c6ccc(O)cc6)O7)[C@H]5c5ccc(O)cc5)c(O)c2)[C@@H](c2ccc(O)cc2)O4)O[C@H](c2ccc(O)cc2)[C@H]3c2cc(O)cc(O)c2)cc1 [chunganenol],IC50,[1]; [8],37.3 µM
C[C@H](O)/C=C/[C@@]1(O)[C@H](C)[C@H](O)[C@@H](O)CC1(C)C [wilsonol A],IC50,[1]; [7],104 µM
(+)-gnetin H,IC50,[1]; [8],251 µM
"Oc1ccc([C@@H]2c3c(O)cc(O)cc3[C@@H]3c4c(cc(O)cc4[C@@H]2O)O[C@H]3c2ccc(O)cc2)cc1 (relative stereo) [Compound 1, acuminatol]",CC50 at 24 h,[2]; [6],400 µM
same,IC50,[3],180 ± 10 µM
same,IC50,[4],10060 ± 50 µM
laetevirenol B,IC50,[1]; [5],37.3 µM
diviniferin B,IC50,[1]; [7],175 µM
"Oc1ccc([C@@H]2c3c(O)cc(O)cc3[C@@H]3c4c(cc(O)c5c4[C@@H]2[C@H](c2ccc(O)cc2)[C@H]5c2cc(O)cc4c2[C@@H](c2cc(O)cc(O)c2)[C@H](c2ccc(O)cc2)O4)O[C@H]3c2ccc(O)cc2)cc1 [Compound 5, vaticanol B]",CC50 at 24 h,[2]; [6],759 µM
same,IC50,[3],100 ± 10 µM
same,IC50,[4],840 ± 20 µM
laetevirenol D,IC50,[1]; [5],128 µM
CC(=O)/C=C/[C@@]1(O)[C@H](C)[C@H](O)[C@@H](O)CC1(C)C [wilsonol C],IC50,[1]; [7],182 µM
laetevirenol E,IC50,[1]; [5],158 µM
